Data published in patent US5254535A, “Composition and treatment with biologically active peptides and antibiotic” (priority 1989, dated 1993).
No end group written: not given here.

Legend:
Format in all cases: cell-based
[1] = tested on: E. coli; test: MIC of peptide alone or with 20% of antibiotic MIC, procedure of Example 1; conditions: for MIC of antibiotic: antibiotic alone against E. coli; for MIC Peptide alone / MIC Peptide and Ampicillin / MIC Peptide with Aztreonam / MIC Peptide with Bacitracin / MIC Peptide and Benzyl penicillin: E. coli; for MIC Peptide and Ampicillin: peptide plus 20% of the MIC of ampicillin; for MIC Peptide and Ampicillin / MIC Peptide and Benzyl penicillin: Table 4; for MIC Peptide with Aztreonam: peptide plus 20% of the MIC of aztreonam, Table 5; for MIC Peptide with Bacitracin: peptide plus 20% of the MIC of bacitracin, Table 2; for MIC Peptide and Benzyl penicillin: peptide plus 20% of the MIC of benzyl penicillin
Description: (§1) S. aureus organisms are grown to mid log phase, and then diluted to 10^3 organisms/ml in 1/2 strength trypticase soy broth. After the incubation of the organisms, the minimal inhibitory concentration in ug/ml for Z-52 MG-2(amide-terminated), PGLa, CPF Z-50, A-97, Magainin II, and Z-74 peptides, against S. aureus was measured when each peptide was added alone to the organisms. "MG-2 (amide)" is amide-terminated Magainin II, and "Magainin II" is carboxy-terminated Magainin II. A-97 peptide is of the following structure:
(§2) The minimal inhibitory concentration (MIC) for each peptide was then measured when 20% of the minimal inhibitory concentration of bacitracin, tobramycin or gentamicin, respecitvely, is added to the organisms along with the peptide. The gentamicin employed is a mixture of Gentamicin C1, Gentamicin C1a, and Gentamicin C2. […] CPF Z-50 peptide has structure number (8) of the CPF peptides hereinabove described. Z-52 peptide is of the structure (ALSK)6 NH2. The minimal inhibitory concentrations are given below in Table I.
E. coli organisms were incubated according to the procedure described in Example 1. After the incubation, the minimal inhibitory concentrations against E. coli of each of the peptides described in Example 1 alone, as well as of each peptide when employed in combination with 20% of the MIC for bactracin, were then measured.
(§3) In this example, E. coli or P. aeruginosa organisms were incubated according to the procedure described in Example 1. After, the incubation, the minimal inhibitory concentrations of the peptides hereinabove described alone, as well as the peptides in combination with 20% of the minimal inhibitory concentrations (MIC) of benzyl penicillin or ampicillin, were then measured. […]
(§4) E. coli and P. aeruoginosa organisms were incubated according to the procedure described in Example 1. After the incubation, the minimal inhibitory concentrations of the peptides hereinabove described alone, as well as the peptides in combination with 20% of the MIC of the monobactam antibiotic aztreonam, were then measured. The MIC of aztreonam against E. coli is a 2 μg/ml, and against P. aeruginosa is 8 μg/ml.

[2] = tested on: S. aureus; test: as above; conditions: for MIC Peptide alone / MIC With Added Antibiotic Bacitracin / MIC With Added Antibiotic Gentamicin / MIC With Added Antibiotic Tobramycin: S. aureus; for MIC Peptide alone: Table I; for MIC With Added Antibiotic Bacitracin: peptide plus 20% of the MIC of bacitracin; for MIC With Added Antibiotic Gentamicin: peptide plus 20% of the MIC of gentamicin; for MIC With Added Antibiotic Tobramycin: peptide plus 20% of the MIC of tobramycin; for MIC of antibiotic: antibiotic alone against S. aureus
Description: as §1, §2

[3] = tested on: P. aeruginosa; test: as above; conditions: for MIC Peptide with Aztreonam: peptide plus 20% of the MIC of aztreonam, Table 5; for MIC Peptide with Bacitracin: peptide plus 20% of the MIC of bacitracin, Table 3; for MIC of antibiotic: antibiotic alone against P. aeruginosa
Description: as §1, §2
In this example, P. aeruginosa organisms were incubated according to the procedure described in Example 1. After the incubation, the minimal inhibitory concentrations of the peptides hereinabove described alone, as well as the peptides in combination with 20% of the MIC of bacitracin, were then measured.
as §3, §4

[4] = tested on: E. coli; test: MIC of peptide with or without 10 μg/ml erythromycin, Example 6
Description: (§5) For each of the organisms listed in Table 6 below, 10^5 organisms were mid-log inoculated into 200 ml of one-half strength trypticase soy broth. The organisms were incubated for 15 hrs. at 37° C. […] The minimal inhibitory concentrations in μg/ml are given below in Table 6. […] K. pneumoniae, P. aeruginosa, and E. coli are Gram-negative bacteria.

[5] = tested on: K. pneumoniae; test: as above
Description: as §5

[6] = tested on: P. aeruginosa; test: as above
Description: as §5

[7] = tested on: S. aureus; test: Erythromycin and peptide against S. aureus, Example 6
Description: For each of the organisms listed in Table 6 below, 10^5 organisms were mid-log inoculated into 200 ml of one-half strength trypticase soy broth. The organisms were incubated for 15 hrs. at 37° C. […] K. pneumoniae, P. aeruginosa, and E. coli are Gram-negative bacteria.

[8] = P. aeruginosa, Example 3, Table 3
[9] = P. aeruginosa, Example 5, Table 5
[10] = peptide with erythromycin 10 μg/ml (+)
[11] = peptide, no erythromycin added (-)

| Molecule | MIC of antibiotic [1] [µg/mL] | MIC Peptide alone [2] [µg/mL] | MIC With Added Antibiotic Bacitracin [2] [µg/mL] | MIC With Added Antibiotic Gentamicin [2] [µg/mL] | MIC With Added Antibiotic Tobramycin [2] [µg/mL] | MIC Peptide alone ([1]; Example 2, Table 2) [µg/mL] | MIC Peptide alone ([1]; Example 4, Table 4) [µg/mL] | MIC Peptide alone ([1]; Example 5, Table 5) [µg/mL] | MIC Peptide and Ampicillin [1] [µg/mL] | MIC Peptide with Aztreonam [1] [µg/mL] | MIC Peptide with Bacitracin [1] [µg/mL] | MIC Peptide alone [3, 8] [µg/mL] | MIC Peptide alone [3, 9] [µg/mL] | MIC Peptide with Aztreonam ([3]; P. aeruginosa) [µg/mL] | MIC Peptide with Bacitracin ([3]; P. aeruginosa) [µg/mL] | MIC of antibiotic [2] [µg/mL] | MIC of antibiotic [3] [µg/mL] | further results |
| --- | --- | --- | --- | --- | --- | --- | --- | --- | --- | --- | --- | --- | --- | --- | --- | --- | --- | --- |
| CC1(C)S[C@@H]2[C@H](NC(=O)Cc3ccccc3)C(=O)N2[C@H]1C(=O)O [benzyl penicillin, reference compound] | 64 | – | – | – | – | – | – | – | – | – | – | – | – | – | – | – | – | – |
| GIGKFLHSAKKFGKAFVGEIMNS [Magainin II] | – | 256 | 128 | 4 | 32 | 32 | 64 | 64 | 16 | 16 | 8 | 256 | 256 | 128 | 16 | – | – | MIC Peptide and Benzyl penicillin [1]: 32 µg/mL |
| NC[C@H]1O[C@H](O[C@H]2[C@H](O)[C@@H](O[C@H]3O[C@H](CO)[C@@H](O)[C@H](N)[C@H]3O)[C@H](N)C[C@@H]2N)[C@H](N)C[C@@H]1O [tobramycin, Tobramycin, reference compound] | 2 | – | – | – | – | – | – | – | – | – | – | – | – | – | – | > 256 | 128 | – |
| GIGKFLHSAKKFGKAFVGEIMNS-NH2 [MG-2 amide] | – | 256 | 32 | 4 | 32 | 16 | 64 | 64 | 8 | 32 | 4 | 128 | 128 | 64 | 8 | – | – | MIC Peptide and Benzyl penicillin [1]: 32 µg/mL; MIC Peptide alone ([3]; P. aeruginosa, Example 4, Table 4): 256 µg/mL; MIC Peptide and Ampicillin ([3]; P. aeruginosa, peptide plus 20% of the MIC of ampicillin, Table 4): 128 µg/mL; MIC Peptide and Benzyl penicillin ([3]; P. aeruginosa, peptide plus 20% of the MIC of benzyl penicillin, Table 4): 128 µg/mL; Minimal Inhibitory Concentration [4, 10]: 0.5 µg/mL; Minimal Inhibitory Concentration [4, 11]: 5 µg/mL; Minimal Inhibitory Concentration [5, 10]: < 0.5 µg/mL; Minimal Inhibitory Concentration [5, 11]: 5 µg/mL; Minimal Inhibitory Concentration [6, 10]: < 5.0 µg/mL; Minimal Inhibitory Concentration [6, 11]: 50 to 100 µg/mL; activity of combination against S. aureus ([7]; 10 μg/ml of amide-terminated Magainin II and 0.03 μg/ml of erythromycin): effective biological activity; concentration required for effective biological activity ([7]; S. aureus, substance alone): greater than 250 μg/ml |
| bacitracin [reference compound] | 64 | – | – | – | – | – | – | – | – | – | – | – | – | – | – | 2 | > 256 | – |
| GFASFLGKALKAALKIGANLLGGTPQQ [Peptide Z-50, structure number (8) of the CPF peptides] | – | 16 | 16 | 2 | 8 | 16 | 32 | 32 | 8 | 8 | 16 | 32 | 64 | 32 | 4 | – | – | Minimal Inhibitory Concentration [4, 10]: < 0.5 µg/mL; Minimal Inhibitory Concentration [4, 11]: < 5.0 µg/mL; Minimal Inhibitory Concentration [5, 10]: < 0.5 µg/mL; Minimal Inhibitory Concentration [5, 11]: < 0.5 µg/mL; Minimal Inhibitory Concentration [6, 10]: < 0.5 µg/mL; Minimal Inhibitory Concentration [6, 11]: < 5.0 µg/mL |
| C[C@H]1[C@H](NC(=O)/C(=N\OC(C)(C)C(=O)O)c2csc(N)n2)C(=O)N1S(=O)(=O)O [aztreonam, reference compound] | 2 | – | – | – | – | – | – | – | – | – | – | – | – | – | – | – | 8 | – |
| CC1(C)S[C@@H]2[C@H](NC(=O)[C@H](N)c3ccccc3)C(=O)N2[C@H]1C(=O)O [ampicillin, alpha-amino-benzyl penicillin, reference compound] | 4 | – | – | – | – | – | – | – | – | – | – | – | – | – | – | – | – | – |
| CC[C@H]1OC(=O)[C@H](C)[C@@H](O[C@H]2C[C@@](C)(OC)[C@@H](O)[C@H](C)O2)[C@H](C)[C@@H](O[C@@H]2O[C@H](C)C[C@H](N(C)C)[C@H]2O)[C@](C)(O)C[C@@H](C)C(=O)[C@H](C)[C@@H](O)[C@]1(C)O [Erythromycin, reference compound] | – | – | – | – | – | – | – | – | – | – | – | – | – | – | – | – | – | Minimal Inhibitory Concentration ([4]; erythromycin alone): > 100 µg/mL; Minimal Inhibitory Concentration ([5]; erythromycin alone): > 100 µg/mL; Minimal Inhibitory Concentration ([6]; erythromycin alone): > 100 µg/mL |
| gentamicin [reference compound] | 2 | – | – | – | – | – | – | – | – | – | – | – | – | – | – | 256 | > 256 | – |
